Assay results published in PubChem BioAssay (NCI).
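In this assay, cells in 96-well plates receive the compound at five concentrations for 48 hours. Endpoints are linearly interpolated between the surrounding concentrations. At the GI50, growth is halved. TGI denotes the concentration required for complete inhibition of growth.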

What was measured:
Experiment in all cases: DTP human tumour cell line panel, 48 h
[1] = tested on: NCI-H522 lung
[2] = tested on: HOP-62 NSCLC
[3] = tested on: HOP-92 NSCLC
[4] = tested on: NCI-H23 lung
[5] = tested on: U251 CNS
[6] = tested on: SN12C renal
[7] = tested on: OVCAR-3 ovarian
[8] = tested on: HCT-116 colon
[9] = tested on: SK-MEL-2 melanoma
[10] = tested on: COLO 205 colon

SMILES	TGI [1] [µM]	TGI [2] [µM]	TGI [3] [µM]	TGI [4] [µM]	TGI [5] [µM]	TGI [6] [µM]	TGI [7] [µM]	TGI [8] [µM]	TGI [9] [µM]	TGI [10] [µM]	GI50 [1] [µM]	GI50 [2] [µM]	GI50 [3] [µM]	GI50 [4] [µM]	GI50 [6] [µM]	GI50 [7] [µM]	GI50 [8] [µM]	GI50 [9] [µM]	GI50 [10] [µM]
CCCCCCCNC(P(=O)(O)O)P(=O)(O)O	> 100	> 100	> 100	> 100	> 100	> 100	> 100	> 100	> 100	> 100									
Fc1ccc(-c2nn3c(-c4cc(C(F)(F)F)cc(C(F)(F)F)c4)nnc3s2)cc1	> 50	3.35	3.93	> 50		> 50	2.42	> 50	4.75	> 50	2.3	1.2	1.22	3.05	2.51	1.16	1.7	1.64	> 50
C=C1C(=O)O[C@@H]2[C@H]1CCC(C)=C1C=CC(=O)[C@]12C	6.96		18.5		54	29.3	31	26.7	79.4										
COC1=CC(=O)c2c(cc(COP(=O)(OCC3OC(n4cc(F)c(=O)[nH]c4=O)CC3O)N(C)CCCCCl)n2C)C1=O (stereo not drawn)	19.1	26.8	12.3	17.7	37.7	1.84	14.5	28.5	56.6	> 39.8									
O=C(O)C1CCC(=O)N1S(=O)(=O)c1ccccc1 (stereo not drawn)	> 100	> 100	> 100	> 100	> 100	> 100	> 100	> 100	> 100	> 100									
CO/C(=C/C(=O)C(Cl)(Cl)Cl)CC/C(=C\C(=O)C(Cl)(Cl)Cl)OC	57.5	49.5	40.1	62.7	54.7	54.5	67.7	42.2	84.1	> 100									
O=C(Nc1c(C(=O)NC2CCCCC2)[nH]c(=O)[nH]c1=O)c1ccc(Cl)cc1	> 100	> 100	> 100			> 100	> 100	> 100		> 100									
c1ccc(N=c2nc(N3CCOCC3)ss2)cc1	25.3	> 100	36.3	> 100	28.6	28.5		27.7	43.4										
NC1(C(=O)O)CCc2ccc(N(CCCl)CCCl)cc2C1 (stereo not drawn)	74.3	63.5	> 100	> 100	> 100	> 100	> 100	1.69	> 100	> 100									
CC(=O)OCC1=C(C(=O)O)C(c2ccc3c(c2)OCO3)c2cc3c(cc2O1)OCO3 (stereo not drawn)		> 100	> 100	> 100	> 100	> 100	> 100	> 100		> 100									
Cc1cc(C)c2c(c1)C1=NCCN1C2(O)c1ccc(Cl)cc1 (stereo not drawn)		29.3	28.6	33.1	32.3	30.3	31.4	26	34.7	29									
Cc1cc2c(C(C)C)c(O)c(O)c(C=NCCO)c2c(O)c1-c1c(C)cc2c(C(C)C)c(O)c(O)c(C=NCCO)c2c1O	4.78	5.96	5.07	4.16	2.59	9.63	5.79	3.03	14.6	3.03									
CC(=O)O[C@H]1C=CC(=O)C(C)CC1C (stereo partly drawn)	> 100	> 100	> 100	> 100	> 100	> 100	> 100	> 100	> 100	> 100									
Clc1ccc(CNc2nc(Cl)c3[nH]cnc3n2)cc1Cl	34.4	89.2		> 100	> 100	> 100	> 100	60.7	77.9	51.8									
CCOc1ccc(/C(C=O)=C(\Cl)c2ccc(OC)c(OC)c2)cc1	> 100		> 100	> 100	> 100	> 100	> 100	> 100	> 100	> 100									
Cc1ccc(C2N=C(N)NC3=C2CCOc2c3ccc3ccccc23)cc1 (stereo not drawn)	> 100	35.1	57.5	> 79.5	> 66.9	> 72	21	12.3	> 100	> 61.6									
N=C(N)SCc1cc(Cl)cc(Cl)c1O	33.4	38	35.1	40.4	30	36.6	31.4	29.8	39.6	33									
O=C(COc1ccc(OCC(=O)NNC2=NC(c3cc(F)c(Cl)cc3Cl)CS2)c(Cl)c1)NNC1=NC(c2cc(F)c(Cl)cc2Cl)CS1 (stereo not drawn)	34.5	> 100	> 100	50.1	28.5	43.8		> 100	> 100	> 100									
CC(=O)C=NCC(=O)O	> 100	> 100	> 100	> 100	> 100	> 100	> 100	> 100	> 100	> 100									
CCCC(N)C(=O)c1ccccc1 (stereo not drawn)	> 100	> 100	> 100	> 100	> 100	> 100	> 100	> 100	> 100	> 100									
c1ccc(-c2nnc(SCc3c[nH]c4ccccc34)n2-c2ccccc2)cc1	> 100	> 100	79.3	> 100	> 100	> 100	> 100	> 100	> 100	> 100									
COc1c2c(cc3c1OCO3)C13C=CC(OC)CC1N(CC3)C2 (stereo not drawn)	> 100	> 100	> 100	> 100	> 100	> 100	> 100	> 100	> 100	> 100									
O=C(Nc1ccc(Sc2ccc(N=Nc3c(O)c(S(=O)(=O)O)cc4cc(S(=O)(=O)O)ccc34)cc2)cc1)c1ccc(N=Nc2c(O)ccc3c(S(=O)(=O)O)cc(S(=O)(=O)O)cc23)cc1	40.2	> 100	> 100	> 100	> 100	> 100	92.5	> 100	> 100	35									
Cc1cc(C)nc(SCC(=O)OC2CC(C)CCC2C(C)C)n1 (stereo not drawn)	46	27.2	67.1	> 100	53.8	37.2	28.5	47	41.9	31									
N#CC(Nc1cccc(C(F)(F)F)c1)c1ccccc1C(F)(F)F (stereo not drawn)	17.1	10.8		27.6	30.5	17.9	16.3	18.7	17.9	10.6									
